Experimental data published in publication PMC6407587, “Inhibition potential of phenolic constituents from the aerial parts of Tetrastigma hemsleyanum against soluble epoxide hydrolase and nitric oxide synthase” (Journal of Enzyme Inhibition and Medicinal Chemistry, 2019).

The compounds below were run against T1, sEH (Homo sapiens, UniProt P34913) (assay: sEH inhibitory activity, fluorescence assay with PHOME substrate). Settings: 100 µM compound; tested three times.
T1 sequence (P34913 1-555): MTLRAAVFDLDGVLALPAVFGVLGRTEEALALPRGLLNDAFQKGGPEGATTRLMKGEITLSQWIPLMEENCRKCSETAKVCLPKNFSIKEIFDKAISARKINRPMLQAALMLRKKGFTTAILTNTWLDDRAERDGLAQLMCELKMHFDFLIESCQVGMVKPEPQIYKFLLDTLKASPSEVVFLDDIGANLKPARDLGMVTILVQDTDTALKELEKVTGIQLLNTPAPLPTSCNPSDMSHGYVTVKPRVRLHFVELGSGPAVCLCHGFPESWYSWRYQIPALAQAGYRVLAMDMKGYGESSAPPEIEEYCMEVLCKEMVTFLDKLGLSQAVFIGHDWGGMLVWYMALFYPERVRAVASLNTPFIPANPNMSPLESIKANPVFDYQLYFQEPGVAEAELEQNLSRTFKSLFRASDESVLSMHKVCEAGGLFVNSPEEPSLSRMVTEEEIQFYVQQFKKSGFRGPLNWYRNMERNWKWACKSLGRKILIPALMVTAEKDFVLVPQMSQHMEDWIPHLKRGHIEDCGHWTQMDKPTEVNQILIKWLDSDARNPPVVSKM
Format: biochemical
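Throughout, for Cytotoxicity in RAW 264.7 cells (MTT): viability gauged by mitochondrial reductase turning MTT into formazan, optical density read at 570 nm, with untreated control cells set as 100% viability.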
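Throughout, for Inhibition of NO production at 50 µM (%): cells pretreated with compound for 2 h, then stimulated 24 h with LPS at 500 ng/ml, supernatant nitrite quantified by absorbance at 550 nm against a nitrite standard curve.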

Row | SMILES | inhibition at 100 µM | Inhibition on sEH at 100 µM (%)
1 | O=c1c(O)c(-c2ccc(O)cc2)oc2cc(O)cc(O)c12 [Compound 10, kaempferol] | 58 ± 2% | –
2 | O=C1CC(c2ccc(O)c(O)c2)c2c(O)cc3c(c2O1)CC(O)C(c1ccc(O)c(O)c1)O3 (stereo not drawn) [Compound 22] | 31.9 ± 4.5% | –
3 | O=C(/C=C\c1ccc(O)cc1)O[C@@H]1C[C@@](O)(C(=O)O)C[C@@H](O)[C@@H]1O [Compound 9] | 32.3 ± 2.7% | –
4 | COC(=O)[C@]1(O)C[C@@H](O)[C@@H](O)[C@H](OC(=O)/C=C/c2ccc(O)c(O)c2)C1 [Compound 6] | 111 ± 1.9% | –
5 | C[C@@H]1CC[C@]2(C(=O)O)CC[C@]3(C)C(=CC[C@@H]4[C@@]5(C)C[C@@H](O)[C@@H](O)C(C)(C)[C@@H]5CC[C@]43C)[C@@H]2[C@]1(C)O [Compound 38] | 39.5 ± 4.1% | –
6 | CC1OC(OCC2OC(OCCc3ccccc3)C(O)C(O)C2O)C(O)C(O)C1O (stereo not drawn) [Compound 36] | – | N.I
7 | CC(=O)O[C@H]1[C@H](OC[C@H]2O[C@@H](Oc3c(-c4ccc(O)c(O)c4)oc4cc(O)cc(O)c4c3=O)[C@H](O)[C@@H](O)[C@@H]2O)O[C@@H](C)[C@H](O)[C@H]1O [Compound 17] | – | 83.8 ± 3.7%
8 | O=C(O)c1ccc(O)cc1 [Compound 25] | 42 ± 3.9% | –
9 | COC(=O)[C@@]1(O)C[C@@H](O)[C@H](O)[C@H](OC(=O)/C=C/c2ccc(O)c(O)c2)C1 [Compound 4] | 68.3 ± 3.4% | –
10 | CC[C@H](/C=C/[C@@H](C)[C@H]1CC[C@H]2[C@@H]3CC=C4C[C@@H](O[C@@H]5O[C@H](CO)[C@@H](O)[C@H](O)[C@H]5O)CC[C@]4(C)[C@H]3CC[C@]12C)C(C)C [Compound 39] | – | N.I
11 | O=C(/C=C/c1ccc(O)cc1)O[C@@H]1C[C@@](O)(C(=O)O)C[C@@H](O)[C@@H]1O [Compound 2] | 4.4 ± 3.2% | –
12 | O=C(/C=C/c1ccc(O)c(O)c1)O[C@@H]1C[C@@](O)(C(=O)O)C[C@@H](O)[C@@H]1O [Compound 1] | 74.3 ± 3.4% | –
13 | O=C1c2c(O)cc(O)cc2O[C@H](c2ccc(O)cc2)[C@H]1O[C@@H]1O[C@H](CO)[C@@H](O)[C@H](O)[C@H]1O [Compound 13] | 22.7 ± 3.9% | –
14 | O=C(CO)c1ccc(O)cc1 [Compound 28] | 22.1 ± 0.9% | –
15 | O=C1C[C@@H](c2ccc(O)cc2)Oc2cc(O)ccc21 [Compound 11] | 34.5 ± 2.5% | –
16 | COc1cc([C@@H]2Oc3c(OC)cc(CCCO)cc3[C@H]2CO)cc(OC)c1O [Compound 21] | – | N.I
17 | Oc1ccc(-c2ccc(O)c(O)c2)cc1O [Compound 33] | 19.4 ± 0.8% | –
18 | COc1cc([C@H]2Oc3c(OC)cc(CCCO)cc3[C@@H]2CO[C@@H]2O[C@H](CO)[C@@H](O)[C@H](O)[C@H]2O)ccc1O [Compound 20] | – | N.I

Same assay, conditions: PHOME substrate; dose-dependent response curve

Row | SMILES | IC50
19 | O=c1c(O)c(-c2ccc(O)cc2)oc2cc(O)cc(O)c12 [Compound 10, kaempferol] | 6.8 ± 2.4 µM
20 | COC(=O)[C@]1(O)C[C@@H](O)[C@@H](O)[C@H](OC(=O)/C=C/c2ccc(O)c(O)c2)C1 [Compound 6] | 14.7 ± 0.4 µM
21 | CC(=O)O[C@H]1[C@H](OC[C@H]2O[C@@H](Oc3c(-c4ccc(O)c(O)c4)oc4cc(O)cc(O)c4c3=O)[C@H](O)[C@@H](O)[C@@H]2O)O[C@@H](C)[C@H](O)[C@H]1O [Compound 17] | 9.5 ± 0.1 µM
22 | COC(=O)[C@@]1(O)C[C@@H](O)[C@H](O)[C@H](OC(=O)/C=C/c2ccc(O)c(O)c2)C1 [Compound 4] | 30.4 ± 0.8 µM
23 | O=C(/C=C/c1ccc(O)c(O)c1)O[C@@H]1C[C@@](O)(C(=O)O)C[C@@H](O)[C@@H]1O [Compound 1] | 41.9 ± 1.2 µM

The compounds below were run against T1, sEH (assay: sEH binding mechanism, Dixon and Lineweaver-Burk plots at different substrate and inhibitor concentrations). Settings: Dixon / Lineweaver-Burk plots.
Format: biochemical

Row | SMILES | Type of sEH inhibition
24 | O=c1c(O)c(-c2ccc(O)cc2)oc2cc(O)cc(O)c12 [Compound 10, kaempferol] | Non-competitive
25 | CC(=O)O[C@H]1[C@H](OC[C@H]2O[C@@H](Oc3c(-c4ccc(O)c(O)c4)oc4cc(O)cc(O)c4c3=O)[C@H](O)[C@@H](O)[C@@H]2O)O[C@@H](C)[C@H](O)[C@H]1O [Compound 17] | non-competitive

Same assay, conditions: Dixon plots

Row | SMILES | Ki
26 | O=c1c(O)c(-c2ccc(O)cc2)oc2cc(O)cc(O)c12 [Compound 10, kaempferol] | 18.6 µM

The compounds below were run on LPS-induced NO production in macrophage RAW 264.7 cells (iNOS) (assay: Inhibition of LPS-induced NO production in RAW 264.7 macrophages (Griess reaction, measure of iNOS activity)). Settings: 50 µM compound; LPS-stimulated RAW264.7 cells.
Format: cell-based

Row | SMILES | Inhibition of NO production at 50 µM (%)
27 | O=C(/C=C\c1ccc(O)cc1)O[C@@H]1C[C@@](O)(C(=O)O)C[C@@H](O)[C@@H]1O [Compound 9] | N.I
28 | CC(=O)O[C@H]1[C@H](OC[C@H]2O[C@@H](Oc3c(-c4ccc(O)c(O)c4)oc4cc(O)cc(O)c4c3=O)[C@H](O)[C@@H](O)[C@@H]2O)O[C@@H](C)[C@H](O)[C@H]1O [Compound 17] | 29.9%
29 | COC(=O)[C@@]1(O)C[C@@H](O)[C@H](O)[C@H](OC(=O)/C=C/c2ccc(O)c(O)c2)C1 [Compound 4] | N.I
30 | O=C1c2c(O)cc(O)cc2O[C@H](c2ccc(O)cc2)[C@H]1O[C@@H]1O[C@H](CO)[C@@H](O)[C@H](O)[C@H]1O [Compound 13] | N.I

Same assay, conditions: Mus musculus, RAW264.7, LPS-stimulated RAW264.7 cells; means ± SE, n = 3

Row | SMILES | IC50
31 | O=c1c(O)c(-c2ccc(O)cc2)oc2cc(O)cc(O)c12 [Compound 10, kaempferol] | 15.6 ± 1.6 µM

Same assay, conditions: Mus musculus, RAW264.7, read-out: Inhibition of NO production at 50 µM (%)

Row | SMILES | inhibition at 50 µM
32 | CC[C@H](/C=C/[C@@H](C)[C@H]1CC[C@H]2[C@@H]3CC=C4C[C@@H](O[C@@H]5O[C@H](CO)[C@@H](O)[C@H](O)[C@H]5O)CC[C@]4(C)[C@H]3CC[C@]12C)C(C)C [Compound 39] | 20.3%

Same assay, conditions: Mus musculus; 50 µM compound; LPS-stimulated RAW264.7 cells; read-out: Inhibition of NO production at 50 µM (%)

Row | SMILES | inhibition at 50 µM
33 | O=c1c(O)c(-c2ccc(O)cc2)oc2cc(O)cc(O)c12 [Compound 10, kaempferol] | 93%
34 | O=C1CC(c2ccc(O)c(O)c2)c2c(O)cc3c(c2O1)CC(O)C(c1ccc(O)c(O)c1)O3 (stereo not drawn) [Compound 22] | 18.3%
35 | COC(=O)[C@]1(O)C[C@@H](O)[C@@H](O)[C@H](OC(=O)/C=C/c2ccc(O)c(O)c2)C1 [Compound 6] | 1.8%
36 | C[C@@H]1CC[C@]2(C(=O)O)CC[C@]3(C)C(=CC[C@@H]4[C@@]5(C)C[C@@H](O)[C@@H](O)C(C)(C)[C@@H]5CC[C@]43C)[C@@H]2[C@]1(C)O [Compound 38] | 8.9%
37 | CC1OC(OCC2OC(OCCc3ccccc3)C(O)C(O)C2O)C(O)C(O)C1O (stereo not drawn) [Compound 36] | 20.9%
38 | O=C(O)c1ccc(O)cc1 [Compound 25] | 17%
39 | O=C(/C=C/c1ccc(O)cc1)O[C@@H]1C[C@@](O)(C(=O)O)C[C@@H](O)[C@@H]1O [Compound 2] | 19.7%
40 | O=C(/C=C/c1ccc(O)c(O)c1)O[C@@H]1C[C@@](O)(C(=O)O)C[C@@H](O)[C@@H]1O [Compound 1] | 5.7%
41 | O=C(CO)c1ccc(O)cc1 [Compound 28] | 6.2%
42 | O=C1C[C@@H](c2ccc(O)cc2)Oc2cc(O)ccc21 [Compound 11] | 10.8%
43 | COc1cc([C@@H]2Oc3c(OC)cc(CCCO)cc3[C@H]2CO)cc(OC)c1O [Compound 21] | 16.2%
44 | Oc1ccc(-c2ccc(O)c(O)c2)cc1O [Compound 33] | 3%
45 | COc1cc([C@H]2Oc3c(OC)cc(CCCO)cc3[C@@H]2CO[C@@H]2O[C@H](CO)[C@@H](O)[C@H](O)[C@H]2O)ccc1O [Compound 20] | 13.9%

Each compound was assayed on RAW 264.7 cells (assay: not given). Settings: not given.

Row | SMILES | Cytotoxicity in RAW 264.7 cells (MTT)
46 | O=c1c(O)c(-c2ccc(O)cc2)oc2cc(O)cc(O)c12 [Compound 10, kaempferol] | did not exhibit significant cytotoxicity
47 | O=C1CC(c2ccc(O)c(O)c2)c2c(O)cc3c(c2O1)CC(O)C(c1ccc(O)c(O)c1)O3 (stereo not drawn) [Compound 22] | did not exhibit significant cytotoxicity
48 | O=C(/C=C\c1ccc(O)cc1)O[C@@H]1C[C@@](O)(C(=O)O)C[C@@H](O)[C@@H]1O [Compound 9] | did not exhibit significant cytotoxicity
49 | C[C@@H]1CC[C@]2(C(=O)O)CC[C@]3(C)C(=CC[C@@H]4[C@@]5(C)C[C@@H](O)[C@@H](O)C(C)(C)[C@@H]5CC[C@]43C)[C@@H]2[C@]1(C)O [Compound 38] | did not exhibit significant cytotoxicity
50 | CC1OC(OCC2OC(OCCc3ccccc3)C(O)C(O)C2O)C(O)C(O)C1O (stereo not drawn) [Compound 36] | did not exhibit significant cytotoxicity
51 | CC(=O)O[C@H]1[C@H](OC[C@H]2O[C@@H](Oc3c(-c4ccc(O)c(O)c4)oc4cc(O)cc(O)c4c3=O)[C@H](O)[C@@H](O)[C@@H]2O)O[C@@H](C)[C@H](O)[C@H]1O [Compound 17] | did not exhibit significant cytotoxicity
52 | O=C(O)c1ccc(O)cc1 [Compound 25] | did not exhibit significant cytotoxicity
53 | CC[C@H](/C=C/[C@@H](C)[C@H]1CC[C@H]2[C@@H]3CC=C4C[C@@H](O[C@@H]5O[C@H](CO)[C@@H](O)[C@H](O)[C@H]5O)CC[C@]4(C)[C@H]3CC[C@]12C)C(C)C [Compound 39] | did not exhibit significant cytotoxicity
54 | O=C(/C=C/c1ccc(O)cc1)O[C@@H]1C[C@@](O)(C(=O)O)C[C@@H](O)[C@@H]1O [Compound 2] | did not exhibit significant cytotoxicity
55 | O=C(/C=C/c1ccc(O)c(O)c1)O[C@@H]1C[C@@](O)(C(=O)O)C[C@@H](O)[C@@H]1O [Compound 1] | did not exhibit significant cytotoxicity
56 | O=C1c2c(O)cc(O)cc2O[C@H](c2ccc(O)cc2)[C@H]1O[C@@H]1O[C@H](CO)[C@@H](O)[C@H](O)[C@H]1O [Compound 13] | did not exhibit significant cytotoxicity
57 | O=C(CO)c1ccc(O)cc1 [Compound 28] | did not exhibit significant cytotoxicity
58 | COc1cc([C@@H]2Oc3c(OC)cc(CCCO)cc3[C@H]2CO)cc(OC)c1O [Compound 21] | did not exhibit significant cytotoxicity
59 | Oc1ccc(-c2ccc(O)c(O)c2)cc1O [Compound 33] | did not exhibit significant cytotoxicity
60 | COc1cc([C@H]2Oc3c(OC)cc(CCCO)cc3[C@@H]2CO[C@@H]2O[C@H](CO)[C@@H](O)[C@H](O)[C@H]2O)ccc1O [Compound 20] | did not exhibit significant cytotoxicity
